From patent US11780850B2, “Purification of rapamycin derivatives using temperature induced phase separation” (Biosensors International Group, Ltd., priority 2013, dated 2023)

Legend:
[1] = Oxidation study, exposure to 30% H2O2; type: physicochemical; settings: 30% H2O2 for 3 hours; for weight loss after oxidative degradation (relative to a control sample): assay measurement
From the text: It is therefore apparent that amorphous BA9 is more susceptible to oxidative degradation.

[2] = Dynamic vapor sorption (DVS) experiment; type: physicochemical
Method: Batch profiling and polymorph screening methods. BA9 Lots 2A and 2B were purified using precipitation from n-hexanes as described above. After the purification process, Lot 2A (82.9 g) was dissolved in methanol (190 g) and precipitated by adding the methanol solution to water. The combined methanolic solution was transferred to an addition funnel and then slowly charged within 1 hour and 15 minutes into vigorously stirred water for injection (2.18 kg) in a reactor at a temperature range of 0-5° C. After completion of the addition of the methanolic solution of BA9, the resulting white suspension was stirred for an additional 15 minutes at the same temperature range. The precipitated BA9 was isolated in 84.8% yield (purity was 96.3% as determined by HPLC). The suspension was then filtered, and the isolated white solid was washed on the filter. Lot 2A was characterized by XRPD and DSC and Lot 2B was characterized by XRPD, DSC, optical microscopy, and infrared (IR) spectroscopy.
A DVS experiment was run on Lot 2B. The increase in mass of the sample was ˜0.5% at 90% RH.

[3] = Photolysis study per ICH Q1B (photostability); settings: for Major Degradants, % (RT 4.2 min): HPLC RT 4.2 min; for Major Degradants, % (RT 4.5 min): HPLC RT 4.5 min; for Major Degradants, % (RT 4.9 min): HPLC RT 4.9 min; for Major Degradants, % (RT 6.2 min): HPLC RT 6.2 min; for Major Degradants, % (RT 7.9 min): HPLC RT 7.9 min; for Major Degradants, % (RT 10.4 min): HPLC RT 10.4 min; for Major Degradants, % (RT 10.7 min): HPLC RT 10.7 min; for Major Degradants, % (RT 11.0 min): HPLC RT 11.0 min
Method: Photolysis studies were performed on amorphous and crystalline BA9 (i.e, Form I).

[4] = Dark Control, storage at standard laboratory temperature without light; settings: for Major Degradants, % (RT 4.5 min): HPLC RT 4.5 min; for Major Degradants, % (RT 4.9 min): HPLC RT 4.9 min; for Major Degradants, % (RT 6.2 min): HPLC RT 6.2 min; for Major Degradants, % (RT 10.4 min): HPLC RT 10.4 min; for Major Degradants, % (RT 10.7 min): HPLC RT 10.7 min; for Major Degradants, % (RT 11.0 min): HPLC RT 11.0 min; for Purity Assay, %: standard laboratory temperature, no light, duration of the study
[5] = Photolysis - VIS/UV, minimum 1.2 million lux hours and not less than 200 W·hours/m^2 per ICH Q1B

weight loss after oxidative degradation (relative to a control sample) [1] | Major Degradants, % (RT 4.2 min) ([3]; Photolysis - VIS/UV) | Major Degradants, % (RT 4.5 min) ([3]; Photolysis - VIS/UV) | Major Degradants, % (RT 4.9 min) ([3]; Photolysis - VIS/UV) | Major Degradants, % (RT 6.2 min) ([3]; Photolysis - VIS/UV) | Major Degradants, % (RT 7.9 min) ([3]; Photolysis - VIS/UV) | Major Degradants, % (RT 10.4 min) ([3]; Photolysis - VIS/UV) | Major Degradants, % (RT 10.7 min) ([3]; Photolysis - VIS/UV) | Major Degradants, % (RT 11.0 min) ([3]; Photolysis - VIS/UV) | Purity Assay, % [3, 5] | Purity Assay, % ([3]; T = 0 Control) | Major Degradants, % (RT 4.5 min) [4] | Major Degradants, % (RT 4.9 min) [4] | Major Degradants, % (RT 6.2 min) [4] | Major Degradants, % (RT 10.4 min) [4] | Major Degradants, % (RT 10.7 min) [4] | Major Degradants, % (RT 11.0 min) [4] | Purity Assay, % [4] | Structure (SMILES) | further results
3.4% | 0.76% | 2.00% | 2.60% | 0.94% | 0.07% | 0.15% | 0.69% | 0.51% | 70.2% | 97.7% | 0.08% | 0.41% | 0.09% | 0.03% | 0.06% | 0.67% | 98.0% | CCOCCOC1CCC(CC(C)C2CC(=O)C(C)C=C(C)C(O)C(OC)C(=O)C(C)CC(C)C=CC=CC=C(C)C(OC)CC3CCC(C)C(O)(O3)C(=O)C(=O)N3CCCCC3C(=O)O2)CC1OC (centres unmarked) [Crystalline BA9, 40-O-(2-ethoxyethyl) rapamycin] | levels of major degradants after oxidative degradation (vs amorphous BA9) ([1]; HPLC): lower levels of major degradants overall; solid form of post DVS sample by XRPD ([2]; after DVS experiment): confirmed as Form I; increase in mass of the sample ([2]; at 90% RH): ~0.5%; Purity Assay, % ([3]; Photolysis - VIS/UV, minimum 1.2 million lux hours and not less than 200 W·hours/m^2 per ICH Q1B, listed as crystalline BA9): 70.2%; Major Degradants, % (RT 4.2 min) ([4]; HPLC RT 4.2 min): 0.01%; Purity Assay, % ([4]; listed as crystalline BA9): 98.0%
6.5% | 1.30% | 7.40% | 1.20% | 2.50% | 2.20% | 1.70% | 0.94% | 2.60% | 16.3% | 98.0% | 0.72% | 0.31% | 0.20% | 0.44% | 1.40% | 0.39% | 88.2% | CCOCCOC1CCC(CC(C)C2CC(=O)C(C)C=C(C)C(O)C(OC)C(=O)C(C)CC(C)C=CC=CC=C(C)C(OC)CC3CCC(C)C(O)(O3)C(=O)C(=O)N3CCCCC3C(=O)O2)CC1OC (centres unmarked) [Amorphous BA9, 40-O-(2-ethoxyethyl) rapamycin] | Purity Assay, % ([3]; Photolysis - VIS/UV, minimum 1.2 million lux hours and not less than 200 W·hours/m^2 per ICH Q1B, listed as amorphous BA9): 16.3%; Purity Assay, % ([4]; listed as amorphous BA9): 88.2%
